Where two headings read alike, the source gives them in different places. Some results are limits rather than exact numbers.

In the assay the target is T1, F508delCFTR (Homo sapiens, UniProt P13569, DEL508-508).
T1 construct: expressed in transfected cells; host or cells: CFBE41o- human lung-derived epithelial cells (CFBE4lo-F508delCFTR-HRP), doxycycline-inducible
Description: Cell Surface Expression-Horse Radish Peroxidase (CSE-HRP) Assay.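 On Maximum % activity (with co-corrector): co-corrector and positive control are both the same reference corrector at 2 µM.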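 On Maximum % activity (without co-corrector): percent of the 2 µM on-plate positive control corrector response above DMSO.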 Format: cell-based. The conditions noted are these: for Emax / Maximum % activity (with co-corrector): maximum at any tested concentration, normalized to on-plate positive control; for Emax: read-out: Maximum % activity (without co-corrector).

Where [1] appears, read: test compound without co-corrector.
Setting [2] is: test compound without co-corrector, read-out: EC50 (without co-corrector).
Where [3] appears, read: with co-corrector (2 μM of 3-[(2R,4R)-4-({[1-(2,2-difluoro-1,3-benzodioxol-5-yl)cyclopropyl]carbonyl}amino)-7-methoxy-3,4-dihydro-2H-chromen-2-yl]benzoic acid), read-out: EC50 (with co-corrector).
Setting [4] is: CSE-HRP, test compound without co-corrector, read-out: EC50 (without co-corrector).
The mark [5] stands for this setting: CSE-HRP, with co-corrector (2 μM of 3-[(2R,4R)-4-({[1-(2,2-difluoro-1,3-benzodioxol-5-yl)cyclopropyl]carbonyl}amino)-7-methoxy-3,4-dihydro-2H-chromen-2-yl]benzoic acid), read-out: EC50 (with co-corrector).
The mark [6] stands for this setting: CSE-HRP, with co-corrector (2 μM).
Setting [7] is: with co-corrector (2 μM of 3-[(2R,4R)-4-({[1-(2,2-difluoro-1,3-benzodioxol-5-yl)cyclopropyl]carbonyl}amino)-7-methoxy-3,4-dihydro-2H-chromen-2-yl]benzoic acid).

T1 sequence (P13569 with tags, fused parts or gaps DEL508-508): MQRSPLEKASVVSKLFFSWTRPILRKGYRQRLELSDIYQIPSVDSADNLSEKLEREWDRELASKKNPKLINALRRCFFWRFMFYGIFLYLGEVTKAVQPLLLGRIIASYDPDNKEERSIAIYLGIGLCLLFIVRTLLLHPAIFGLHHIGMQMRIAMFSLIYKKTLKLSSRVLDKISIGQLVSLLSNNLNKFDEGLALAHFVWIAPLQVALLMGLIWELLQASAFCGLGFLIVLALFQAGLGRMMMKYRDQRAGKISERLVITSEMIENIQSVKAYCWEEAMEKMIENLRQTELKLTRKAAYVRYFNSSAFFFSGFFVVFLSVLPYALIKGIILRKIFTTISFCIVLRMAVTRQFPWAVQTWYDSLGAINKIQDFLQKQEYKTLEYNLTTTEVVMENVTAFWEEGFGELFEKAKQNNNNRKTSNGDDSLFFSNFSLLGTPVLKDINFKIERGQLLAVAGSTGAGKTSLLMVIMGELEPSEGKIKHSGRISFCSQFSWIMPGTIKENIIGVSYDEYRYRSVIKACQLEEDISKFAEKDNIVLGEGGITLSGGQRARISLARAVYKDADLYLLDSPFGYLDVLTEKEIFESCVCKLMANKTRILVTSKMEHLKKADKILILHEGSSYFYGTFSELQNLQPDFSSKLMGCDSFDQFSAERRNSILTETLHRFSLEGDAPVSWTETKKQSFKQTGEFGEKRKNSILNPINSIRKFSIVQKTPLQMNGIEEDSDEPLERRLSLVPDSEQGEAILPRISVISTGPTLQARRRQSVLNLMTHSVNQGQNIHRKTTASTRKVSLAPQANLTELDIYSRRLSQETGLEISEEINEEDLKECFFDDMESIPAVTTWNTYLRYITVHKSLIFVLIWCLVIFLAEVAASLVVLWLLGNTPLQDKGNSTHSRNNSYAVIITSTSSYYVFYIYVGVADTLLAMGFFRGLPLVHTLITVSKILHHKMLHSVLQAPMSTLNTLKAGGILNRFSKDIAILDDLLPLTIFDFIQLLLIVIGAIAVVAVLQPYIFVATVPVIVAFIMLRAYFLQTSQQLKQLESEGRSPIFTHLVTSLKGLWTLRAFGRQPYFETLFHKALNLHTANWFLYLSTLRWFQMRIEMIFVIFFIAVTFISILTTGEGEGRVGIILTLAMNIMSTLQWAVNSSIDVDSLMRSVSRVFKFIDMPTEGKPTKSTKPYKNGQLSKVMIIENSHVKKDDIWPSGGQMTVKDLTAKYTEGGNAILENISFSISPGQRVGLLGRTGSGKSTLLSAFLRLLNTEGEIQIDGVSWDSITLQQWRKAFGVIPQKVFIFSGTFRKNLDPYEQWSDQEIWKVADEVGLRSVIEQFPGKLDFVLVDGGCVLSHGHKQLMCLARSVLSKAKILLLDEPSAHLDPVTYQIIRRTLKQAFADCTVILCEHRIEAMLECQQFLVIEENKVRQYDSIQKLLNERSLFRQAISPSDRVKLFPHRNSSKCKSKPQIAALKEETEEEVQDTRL

In general, EC50 refers to the concentration giving half of the maximal effect. Turning to `COc1ccc(C(C)(C)C)cc1CN[C@H]1[C@H](C(C)(C)C)[C@@H](C(=O)O)N(C(=O)C2CCCC2(C)C)[C@H]1c1ccccc1` (some centres unmarked) [III-204], the Emax under setting [1] is above 200%. Besides, the EC50 was below 1000 nM under setting [2] and below 1000 nM under setting [3]. Moreover, under “with co-corrector (2 μM)”, the “Maximum % activity (with co-corrector)” value is “+++ (≥350)”.

On to `COc1ccc(C(C)(C)C)cc1CN[C@H]1[C@H](C(C)(C)C)[C@@H](C(=O)O)N(C(=O)C(C)Oc2ccccc2Cl)[C@H]1c1ccccc1` (some centres unmarked) [II-312], for which the EC50 under setting [4] was below 1000 nM and the EC50 under setting [5] was below 1000 nM. Also, the “Maximum % activity (with co-corrector)” value under setting [6] is “+++ (≥350)”. Besides, the Emax (CSE-HRP, without co-corrector) was in the range of 100 to 200%.

As for `COc1ccc(C(C)(C)C)cc1CN[C@H]1[C@H](C(C)(C)C)[C@@H](C(=O)O)N(C(=O)[C@@H]2[C@H](C(F)(F)F)[C@@H]3CC[C@H]2O3)[C@H]1c1cccnc1N(C)C` (relative stereo) [II-473], the Emax under setting [1] is above 200%. In addition, the EC50 reads like this: under setting [2], 1000 to 10000 nM; under setting [3], below 1000 nM. Under setting [7], the “Maximum % activity (with co-corrector)” value was “+++ (≥350)”.

As for `COc1ccc(C(C)(C)C)cc1CN[C@H]1[C@H](C(C)(C)C)[C@@H](C(=O)O)N(C(=O)OC(C)C)[C@H]1c1ccccc1OC` [Example 13, (2S,3S,4S,5S)-3-tert-butyl-4-{[(5-tert-butyl-2-methoxyphenyl)methyl]amino}-5-(2-methoxyphenyl)-1-{[(propan-2-yl)oxy]carbonyl}pyrrolidine-2-carboxylic acid], the EC50 is 1000 to 10000 nM under setting [2] and 1000 to 10000 nM under setting [3]. Moreover, the “Maximum % activity (with co-corrector)” value (with co-corrector (2 μM)) is given as “+++ (≥350)”. In addition, the Emax (without co-corrector) is 100 to 200%.

`COc1ccc(-c2ccc(C)cc2)cc1CN[C@H]1[C@H](C(C)(C)C)[C@@H](C(=O)O)N(C(=O)C2CCCCC2)[C@H]1c1ccccc1` [II-249]: the concentration for a half-maximal effect (EC50) was below 1000 nM under setting [4] and below 1000 nM under setting [5]. Further, the “Maximum % activity (with co-corrector)” value under setting [6] is “+++ (≥350)”. Under “CSE-HRP, without co-corrector”, the Emax was above 200%.

As to `COc1cc(C(F)(F)F)ccc1CN[C@H]1[C@H](C(C)(C)C)[C@@H](C(=O)O)N(C(=O)C2CCCC(F)(F)C2)[C@H]1c1ccccc1` (some centres unmarked) [II-508], the Emax under setting [1] fell in the range of 100 to 200%. Moreover, the EC50 is 1000 to 10000 nM under setting [2] and below 1000 nM under setting [3]. Under setting [7], the “Maximum % activity (with co-corrector)” value is “+++ (≥350)”.

For `COc1ccc(C(F)(F)F)cc1CN[C@H]1[C@H](C(C)(C)C)[C@@H](C(=O)O)N(C(=O)[C@@H]2OCC[C@@H]2C)[C@H]1c1ccccc1` (relative stereo) [II-274], the EC50 by setting is: under setting [4], 1000 to 10000 nM; under setting [5], 1000 to 10000 nM. In addition, under setting [6], the “Maximum % activity (with co-corrector)” value is reported as “+++ (≥350)”. Further, under “CSE-HRP, without co-corrector”, the Emax is above 200%.

With `CO[C@H](C(=O)N1[C@H](c2cccnc2N(C)C)[C@H](Nc2cc(C(F)(F)F)cc(C)n2)[C@@H](C(C)(C)C)[C@@H]1C(=O)O)c1ccccc1` (racemic) [III-90], the Emax under setting [1] was below 100%. Moreover, the concentration for a half-maximal effect (EC50) is, setting by setting: under setting [2], above 10000 nM; under setting [3], 1000 to 10000 nM. Also, the “Maximum % activity (with co-corrector)” value under setting [7] is listed as “+ (<150)”.

Take `COc1ccc(C(C)(C)C)cc1CN[C@H]1[C@H](C(C)(C)C)[C@@H](C(=O)O)N(C(=O)O[C@H]2C[C@@H](C)CC[C@@H]2C(C)C)[C@H]1c1ccccc1` [II-386]: the Emax under setting [1] was above 200%. In addition, the EC50 is, setting by setting: under setting [2], below 1000 nM; under setting [3], below 1000 nM. Under setting [7], the “Maximum % activity (with co-corrector)” value was “+++ (≥350)”.

Turning to `COc1ccc(C(C)(C)C)cc1CN[C@H]1[C@H](C(C)(C)C)[C@@H](C(=O)O)N(C(=O)c2c(C)nn3c2CCCC3)[C@H]1c1ccccc1` [II-363], the Emax under setting [1] lay within 100 to 200%. Also, the EC50 is, setting by setting: under setting [2], 1000 to 10000 nM; under setting [3], 1000 to 10000 nM. Moreover, the “Maximum % activity (with co-corrector)” value under setting [7] is “+++ (≥350)”.

For `COc1ccccc1[C@@H]1[C@H](NCc2cccc3c2OC(F)(F)O3)[C@@H](C(C)(C)C)[C@H](C(=O)O)N1C(=O)C1CCCCC1` (racemic) [III-45], under setting [1], the Emax was below 100%. For the same compound, the 50% effective concentration (EC50) under setting [2] lay within 1000 to 10000 nM and the EC50 under setting [3] was 1000 to 10000 nM. The “Maximum % activity (with co-corrector)” value under setting [7] is “++ (≥150 and <350)”.

Turning to `COc1ncc(C2CCC2)cc1CN[C@H]1[C@H](C23CC(C2)C3)[C@@H](C(=O)O)N(C(=O)OC(C)C)[C@H]1c1ccccc1` [Example I-236], the concentration for a half-maximal effect (EC50) is 1000 to 10000 nM under setting [2] and 1000 to 10000 nM under setting [3]. In addition, under “with co-corrector (2 μM)”, the “Maximum % activity (with co-corrector)” value is “+++ (≥350)”. Besides, the Emax (without co-corrector) lay within 100 to 200%.

In the case of `COc1ncc(C2CCC2)cc1CN[C@H]1[C@H](C(C)(C)C)[C@@H](C(=O)O)N(C(=O)[C@@H]2CCCCO2)[C@H]1c1ccccc1C(C)C` [Example 73, (2S,3S,4S,5S)-3-tert-butyl-4-{[(5-cyclobutyl-2-methoxypyridin-3-yl)methyl]amino}-1-[(2S)-oxane-2-carbonyl]-5-[2-(propan-2-yl)phenyl]pyrrolidine-2-carboxylic acid], the half-maximal effective concentration (EC50) is below 1000 nM under setting [2] and below 1000 nM under setting [3]. Besides, under “with co-corrector (2 μM)”, the “Maximum % activity (with co-corrector)” value was “+++ (≥350)”. Besides, the Emax (without co-corrector) is above 200%.

For the compound `Cc1ccc(CN[C@H]2[C@H](C(C)(C)C)[C@@H](C(=O)O)N(C(=O)C3CCCCC3)[C@H]2c2ccccc2)c(C)c1` [II-131], the EC50 under setting [4] fell in the range of 1000 to 10000 nM and the EC50 under setting [5] lay in the range of 1000 to 10000 nM. The “Maximum % activity (with co-corrector)” value under setting [6] was “++ (≥150 and <350)”. Further, the Emax (CSE-HRP, without co-corrector) was in the range of 100 to 200%.

Turning to `COc1ccc(C(F)(F)F)cc1CN[C@@H]1[C@@H](C(C)(C)C)[C@H](C(=O)O)N(C(=O)[C@](OC)(c2ccccc2)C(F)(F)F)[C@@H]1c1ccccc1` [III-102], the Emax under setting [1] was below 100%. Further, the half-maximal effective concentration (EC50) is above 10000 nM under setting [2] and 1000 to 10000 nM under setting [3]. The “Maximum % activity (with co-corrector)” value (with co-corrector (2 μM)) was “++ (≥150 and <350)”.

Take `COc1ccc(C(C)(C)C)cc1CN[C@H]1[C@H](C(C)(C)C)[C@@H](C(=O)O)N(C(=O)c2cnn3c2CCCC3)[C@H]1c1ccccc1` [II-364]: under setting [1], the Emax lay in the range of 100 to 200%. Further, the EC50 runs as follows: under setting [2], 1000 to 10000 nM; under setting [3], 1000 to 10000 nM. Further, under setting [7], the “Maximum % activity (with co-corrector)” value is “+++ (≥350)”.

For `COc1ccc(C2(C)CCC2)cc1CN[C@H]1[C@H](C(C)(C)C)[C@@H](C(=O)O)N(C(=O)[C@@H]2CCCCO2)[C@H]1c1ccccc1F` [II-546], the Emax under setting [1] is above 200%. Further, the EC50 is, setting by setting: under setting [2], 1000 to 10000 nM; under setting [3], 1000 to 10000 nM. The “Maximum % activity (with co-corrector)” value under setting [7] was “+++ (≥350)”.

As to `COc1cc2c(cc1CN[C@H]1[C@H](C(C)(C)C)[C@@H](C(=O)O)N(C(=O)C3CCCCC3)[C@H]1c1ccccc1)CCC2` [Example I-49], the 50% effective concentration (EC50) was 1000 to 10000 nM under setting [2] and below 1000 nM under setting [3]. For the same compound, the “Maximum % activity (with co-corrector)” value (with co-corrector (2 μM)) is listed as “+++ (≥350)”. Further, under “without co-corrector”, the Emax is above 200%.

Regarding `COc1cc(C(F)(F)F)ccc1CN[C@@H]1[C@@H](C(C)(C)C)[C@H](C(=O)O)N(C(=O)C2CCCCC2)[C@@H]1c1ccccc1` (racemic) [III-35], the Emax under setting [1] lay in the range of 100 to 200%. Also, the concentration giving a half-maximal response (EC50) runs as follows: under setting [2], 1000 to 10000 nM; under setting [3], below 1000 nM. Besides, under setting [7], the “Maximum % activity (with co-corrector)” value is reported as “+++ (≥350)”.

Consider `COc1ccc(-c2ccc(F)cc2F)cc1CN[C@H]1[C@H](C(C)(C)C)[C@@H](C(=O)O)N(C(=O)C2CCCCC2)[C@H]1c1ccccc1` [II-283], for which the EC50 is, setting by setting: under setting [4], below 1000 nM; under setting [5], below 1000 nM. Besides, the “Maximum % activity (with co-corrector)” value under setting [6] is on record as “+++ (≥350)”. Further, the Emax (CSE-HRP, without co-corrector) is above 200%.

Source of the values: patent publication US20180099931A1 (AbbVie S.à.r.l., priority 2016, published 2018).
